Experimental data as given in patent publication US20180296537A1, “METHODS AND COMPOSITIONS FOR DIAGNOSING, TREATING, AND MONITORING TREATMENT OF SHANK3 DEFICIENCY ASSOCIATED DISORDERS” (Novartis AG, priority 2015, published 2018).

Test system: PMDS iPS-derived neurons
Assay: sEPSC recordings from iPS-derived PMDS neurons
Assay type: cell-based, human
Description: Primary human dermal fibroblasts from neonatal (Invitrogen, Carlsbad, Calif.) and adults (University of Milano, Dr. Sala) were taken for reprogramming using the CytoTune-iPS reprogramming kit (Life Technologies, Carlsbad, Calif.) according to the standard protocol. Colonies with hallmark of pluripotent morphology were readily visible between days 17 and 20 after transduction. These were picked and subcloned multiple times on plates coated with Matrigel (BD Biosciences, San Jose, Calif.) in mTeSR medium until Sendai virus RNA could no longer be detected and the morphology looked stable. […] Karyotype analyses was performed by full-genome SNP analyses by Life&Brain Gmbh (Bonn). […] Neuronal precursors were differentiated from iPS cells by using a modified dual SMAD inhibition as described earlier (Chambers et al., 2009; Pecho-Vrieseling et al., 2014). Briefly, […] undifferentiated hiPSC were seeded in an ULA 96-well in 0.1 ml neural induction medium (20% knockout-serum replacement (Invitrogen), 0.1 mM MEM non-essential amino acids (Invitrogen), 0.1 mM 2-mercaptoethanol (Invitrogen), 75% […] (Invitrogen Gibco); Pen/Strep, 10 ng ml bhFGF (1:1,000, Invitrogen), 10 μM SB 431542 (1:1,000) (Tocris, Bristol, UK) and 1 μM LDN 193189 (1:10,000) (Stemgent) with 10 μM Rock inhibitor to prevent apoptosis (Calbiochem, Darmstadt, Germany). Two days later 0.1 ml of fresh induction media was added to the old one. The next day 30 embryoid bodies (EB) were transferred to a 35 mm matrigel dish with induction media. At day 10 EB's were cleaned to have only neuronal rosettes left. […]
Whole cell patch-clamp recordings were excluded if the access resistance exceeded 13 MΩ and changed more than 20% during the recordings. Data were recorded with a MultiClamp 700B (Molecular Devices) amplifier, filtered at 0.2 kHz, and digitised at 10 kHz. Data were acquired and analysed with Clampex 10.0, Clampfit 10.0 (Molecular Devices) and the Mini Analysis Program (Synaptosoft, Decatur, Ga.). […]

[1] = PMDS neurons, eight weeks in vitro, overnight treatment

## CCOC(=O)C1=C(N)Oc2ccc(Cl)cc2C1C(C#N)C(=O)OCC (stereo not drawn) [SC79]
[1]
  frequency of spontaneous EPSCs (sEPSCs): completely rescued this impairment
Neurons from second PMDS patient (PMDS-2)
  frequency of spontaneous EPSCs (sEPSCs): restorative effect of SC79 was also observed

## CCN1/C(=C/C(C)=O)Sc2ccc(OC)cc21 [TG003, (Z)-1-(3-ethyl-5-methoxy-2,3-dihydrobenzothiazol-2-ylidene)propan-2-one]
[1]
  frequency of spontaneous EPSCs (sEPSCs): completely rescued this impairment
